Experiments:
[1] = test system: rat cerebral cortex cells; settings: 1 mg/kg i.p., 4 injections; cells isolated day 16; FIG. 2.9
Method: (§1) The experiments were conducted on male outbred rats weighing 350-420 g. The test compound was administered intraperitoneally at a dose of 1 mg/kg. On day 1 the animals were given the first injection of the test compound. 24 hours later (day 2) they underwent surgery for a bilateral ligation of the carotid artery. Following another 24 h (day 3) the animals were given the second injection of the test compound. 96 hours later (day 7) they were given the third injection of the test compound. Following another 24 h (day 8) the animals were tested in an open field test (Jackson H. F., Broadhurst P. L. The effects of parachlorophenylalanine and stimulus intensity on open-field test measures in rats. Neuropharmacology, 1982, 21, 1279-1282). On the next day (day 9) they were allowed to explore new objects (a modification of the test described in Ennaceur A., Delacour J. A new one-trial test for neurobiological studies of memory in rats. 1: Behavioral data. Behavioral Brain Research, 1988, 31, 47-59). On day 11 the animals were given the fourth injection of the test compound. The animals were sacrificed by decapitation 120 hours after the last injection of the test compound (day 16).
(§2) The rats were distributed into 3 groups (n≧8 for each group) at random. Group 1 (sham-operated) comprised animals that were anesthetized followed by a sham operation and subsequently received 4 injections of physiological saline according to the experimental set-up; Group 2 (ligation) comprised animals that were anesthetized followed by surgery for a bilateral ligation of the carotid artery and subsequently received 4 injections of saline according to the experimental set-up; Group 3 (ligation+test compound) comprised animals that were anesthetized followed by surgery for a bilateral ligation of the carotid artery and subsequently received 4 injections of the test compound according to the experimental set-up.

[2] = test system: rats with bilateral ligation of the carotid artery; settings: 1 mg/kg i.p.
Method: as §1, §2

## NCCCC[C@H](NC(=O)[C@H](CCC(=O)O)NC(=O)CCC(=O)O)C(=O)NCCCCCCNC(=O)[C@H](CCCCN)NC(=O)[C@H](CCC(=O)O)NC(=O)CCC(=O)O [GK-2, bis-(N-monosuccinyl-glutamyl-lysine) hexamethylenediamide]
[1]
  viability of the cortical cells (MTT): enhanced
[2]; day 8, ligation reduced it, FIG. 2.5
  horizontal motor activity in the open field test: restored it to the level found in the sham-operated rats
[2]; day 8, ligation reduced it, FIG. 2.6
  vertical motor activity in the open field test: restored it to the level found in the sham-operated rats
[2]; day 9, FIGS. 2.7, 2.8
  total object smelling time and first-minute object exploration: not different from the sham-operated rats
